The test system of the assay is skin. As to the kind of experiment: Sensory assessment of 1 wt.-% 3-hydroxypropyl undecylenate in o/w emulsion versus placebo. It counts as in vivo, human. The conditions noted are these: 1 wt.-% in o/w emulsion vs placebo without active. As for the experimental part:
Heat phase A and C separately up to 80° C. Disperse phase B in phase A. Add phase C to phase AB and emulsify using a HomoRex stirrer (3 min, […]). Add phase D and neutralize. Allow to cool by using a vane stirrer (10 min at 150 rpm, then 10 min at 100 rpm). Pre-dissolve 3-hydroxypropyl undecylenate with pentylene glycol and propylene glycol (phase E) and add to the emulsion by using a vane stirrer (10 min, 100 rpm). Sensory Assessment: Test design (for two samples; presented in random order) 100 μl of sample was applied on the forearm. Sample was distributed with index and middle finger in rotary movements for 20 seconds. Then the second sample is applied on the other forearm and again distributed. After 3 minutes the skin feel is evaluated. Question to the panellists: Which formulation (A or B) leaves the skin more soft and moisturized on a scale from 0-4? (Soft/moisture: 0=not at all; 4=very strong)

Consider `C=CCCCCCCCCC(=O)OCCCO` [3-hydroxypropyl undecylenate], for which the “Soft and moisturized skin feel versus placebo (in words)” value is “more soft and moisturized skin feel”.

The values are drawn from patent US12576018B2, “Active agents for skin and hair care with sensory modifying properties” (SYMRISE AG, priority 2019, dated 2026).
